Data set [1] in a line: in vivo. The following applies: male, SD, rat, iv, i.v. 2 mg 25/kg; for AUC(0-inf): AUC0-∞.
In data set [2] the test system is B spleen cells. Description: Spleen cells proliferation inhibition assay (MTT), B spleen cells. As to conditions: mouse spleen cells, 72 h, read-out: B Spleen Cells IC50 ± SD. Type of data set: cell-based, mouse (ICR).
Method: Preparation of Splenocyte Suspension: The spleen was aseptically taken from female ICR mice strains (6–8 weeks-old, 20 ± 2 g), crushed gently and separated into single cells by squeezing in 20 mL RPMI 1640 medium (Invitrogen, shanghai, China). The cells obtained were passed through 70 μM nylon cell strainer and centrifuged at 1000 rpm∙min^−1 for 5 min at RT. Pellets were added into 10 mL erythrocytes lysis buffer (150 mM NH4Cl, 10 mM KHCO3 and 0.1 mM EDTA) followed by centrifugation to remove erythrocytes. After washing twice with complete medium (RPMI 1640 containing 100 U∙mL^−1 of penicillin, 100 U∙mL^−1 of streptomycin and 10% FBS), they were re-suspended in the complete medium and used for cell culture.
The conditions of data set [3]: rats, intravenous injection of 25 (2 mg∙kg^−1).
In data set [4] the test system is HCV JFH1-2a replicon. The data set can be described thus: HCV JFH1-2a subgenomic replicon assay (Renilla luciferase, Huh 7.5.1 replicon cells). As to conditions: Hepatitis C virus. It counts as cell-based. On the technique in general: Replicon systems follow genome replication, usually without infectious particles.
The subject of data set [5] is HCV H77-1a replicon. Description: HCV H77-1a subgenomic replicon assay. Type of data set: cell-based. As to conditions: Hepatitis C virus; Table 4; read-out: Anti-HCV Activity EC50 ± SD Replicon Assay H77-1a.
Data set [6] relates to JFH1-2a (S282T) virus. The data set can be described thus: HCV virus assay, mutant JFH1-2a (S282T) virus strain. Type of data set: cell-based. The following applies: Hepatitis C virus, read-out: Anti-HCV Activity (Virus Assay) EC50 ± SD JFH1-2a (S282T).
For data set [7], the system named is T spleen cells. The data set can be described thus: Spleen cells proliferation inhibition assay (MTT), T spleen cells. It counts as cell-based, mouse (ICR). As to conditions: mouse spleen cells, 72 h, read-out: T Spleen Cells IC50 ± SD. On the procedure: Preparation of Splenocyte Suspension: The spleen was aseptically taken from female ICR mice strains (6–8 weeks-old, 20 ± 2 g), crushed gently and separated into single cells by squeezing in 20 mL RPMI 1640 medium (Invitrogen, shanghai, China). The cells obtained were passed through […] nylon cell strainer and centrifuged at 1000 rpm∙min^−1 for 5 min at RT. Pellets were added into 10 mL erythrocytes lysis buffer (150 mM NH4Cl, 10 mM KHCO3 and 0.1 mM EDTA) followed by centrifugation to remove erythrocytes. After washing twice with complete medium (RPMI 1640 containing 100 U∙mL^−1 of penicillin, 100 U∙mL^−1 of streptomycin and 10% FBS), they were re-suspended in the complete medium and used for cell culture.
After 72 h of incubation, the cell growth was evaluated with MTT assay. The assay plates were added 10 μL of 5 mg∙mL^−1 MTT per well and incubated for 4 h. The formazan generated was solubilized with 100 μL of solution (10% SDS, 5% isobutyl alcohol, and 10 mM HCl) after incubated at 37 °C overnight. The absorption at 580 nm relative to 680 nm was measured by SpectraMax Plus 384 Reader (Molecular Devices, Shanghai, China).

The subject of data set [8] is HCV Con1-1b replicon. The data set can be described thus: HCV Con1-1b subgenomic replicon assay. As to conditions: Hepatitis C virus; Table 4; read-out: Anti-HCV Activity EC50 ± SD Replicon Assay Con1-1b. Type of data set: cell-based.
Data set [9] has as its system JFH1-2a virus (wild type). The data set can be described thus: HCV virus assay, JFH1-2a wild type, Huh 7.5.1 cells. As to conditions: Hepatitis C virus.
Data set [10] in a line: Cell proliferation (cytotoxicity) assay, WST-1. Type of data set: cell-based. The following applies: human. How it is done:
Cell Proliferation Assay: Huh 7.5.1 cells were seeded at a density of 2 × 10^4 cells per well in 96-well plates overnight. The cells were respectively incubated with serial diluted compounds for 48 h, and the viability of Huh7.5.1 cells was determined in 96-well tissue culture plates using cell proliferation reagent WST-1 (Roche, Basel, Switzerland). The absorbance (OD450 /reference OD630) was measured to detect the cytotoxicity of compounds, according to the manufacturer’s protocol of Cell Proliferation Reagent WST-1.
In general terms: Tetrazolium assays rely on reduction of a dye to a coloured formazan, in cell work by metabolically active cells.

Data set [11] addresses CypA (Homo sapiens, UniProt P62937). The data set can be described thus: CypA enzyme inhibition assay (chymotrypsin-coupled PPIase assay). Type of data set: biochemical. As to conditions: mean ± SD of five independent experiments. How it is done: The PPIase activity of CypA was conducted in a coupled assay with chymotrypsin using the synthetic tetrapeptide N-succinyl-Ala-Ala-Pro-Phe-p-nitroanilide (Sigma, Shanghai, China) as described in [34] with small modifications. The assay buffer (20 mM Tris-HCl, 50 mM NaCl, pH 7.8) and CypA were precooled at 4 °C and mixed with 0.4 mg∙mL^−1 chymotrypsin (20 mg∙mL^−1 in 1 mM HCl). The reaction was initiated by adding peptide substrate (2 mg∙mL^−1 in 500 mM LiCl in tetrahydrofuran (THF)). […] Absorbance readings were collected every 0.1 s and the temperature was controlled at 4 °C during the assay. The progress curves were analyzed by nonlinear least-squares fit. The inhibition assays of compounds were performed in the same manner as above-mentioned. […] of test compounds in DMSO, at various concentrations, was added to the CypA solution in the assay buffer. After being preincubated for 1 h at 4 °C, the assay was started by the addition of chymotrypsin and the substrate. To calculate the half-maximal inhibitory concentration (IC50), a percent of the remaining PPIase activity was plotted against the common logarithm of the compound concentration, and the data were fitted using the sigmoidal fitting model of Origin 7.0 software.

For data set [12], the system named is HCV subgenomic replicon. As to conditions: cited from earlier work.
Setting [13] is: SD rats, Mean ± SD (Rat 1 and 3).
Where [14] appears, read: Table 1, mean ± SD of three independent experiments, read-out: Anti-HCV JFH1-2a Replicon Assay EC50 ± SD.
Setting [15] is: Table 4, read-out: Anti-HCV Activity EC50 ± SD Replicon Assay JFH1-2a.
The mark [16] stands for this setting: Huh-7.5.1, read-out: Anti-HCV Activity (Virus Assay) EC50 ± SD JFH1-2a (Wild Type).
Where [17] appears, read: Huh-7.5.1, read-out: Anti-HCV Activity EC50 ± SD Virus Assay JFH1-2a.

Molecules are shown by their SMILES. Where two headings read alike, the source gives them in different places. A value given as a limit tells only on which side of the number the result lay.

As usually defined, the AUC(0-inf) is total exposure, with the tail of the curve extrapolated. High values mean more exposure, low ones less exposure. What is called Cmax is the highest concentration seen after dosing. In general, MRT refers to the average time that molecules of a dose stay in the body. As usually defined, the half-life is the time in which the quantity being followed falls by half. A lower half-life goes with rapid decline. By IC50 is commonly meant the concentration that inhibits the measured activity by half. As a reminder, the EC50 is the concentration giving half of the maximal effect. What is called CC50 is the concentration giving 50% cytotoxicity. Read a high CC50 as lower toxicity to the cells. By melting point is commonly meant the temperature, or range, at which the solid turns liquid.

Chain of CypA (P62937 whole entry): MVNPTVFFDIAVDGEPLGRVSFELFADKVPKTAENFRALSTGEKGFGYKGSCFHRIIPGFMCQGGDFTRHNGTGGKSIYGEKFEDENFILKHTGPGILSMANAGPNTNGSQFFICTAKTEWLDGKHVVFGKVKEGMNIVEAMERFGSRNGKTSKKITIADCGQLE

On to `O=C(NC(=O)c1c(O)cccc1O)NC1c2ccccc2-c2ccccc21` [Compound 1], for which the total exposure AUC(0-inf) in data set [1] (SD rat, Rat 1) stood at 335 ng·h/mL; in data set [1] (SD rat, Rat 3) it was 324 ng·h/mL; in data set [1] (setting [13]), 329 ± 8.08 ng·h/mL. In addition, the Cmax in data set [1] (SD rat, Rat 1) stood at 698 ng/mL; in [1] (SD rat, Rat 3) it was 1110 ng/mL; in data set [1] (setting [13]), 904 ± 292 ng/mL. In addition, the MRT in [1] (SD rat, Rat 1) amounted to 0.94 h; in data set [1] (SD rat, Rat 3) it was 0.55 h; in [1] (setting [13]) it was 0.75 ± 0.28 h. For the same compound, the half-life in data set [1] (t1/2, SD rat, Rat 1) was 1.84 h; in data set [1] (t1/2, SD rat, Rat 3), 1.21 h; in data set [1] (t1/2, SD rats, Mean ± SD (Rat 1 and 3)), 1.53 ± 0.45 h. In addition, the IC50 in data set [2] came to 51900 ± 8680 nM; in data set [7], 33000 ± 5720 nM. For the same compound, in [3], the “plasma concentration after 5 min (mean ± SD)” value came to 904.5 ± 291.9 ng/mL. Also, the EC50 was determined as 920 ± 120 nM in [4] (setting [14]); 920 ± 120 nM in data set [4] (setting [15]); 1110 ± 330 nM in [5]; 560 ± 130 nM in data set [6]; 780 ± 190 nM in data set [8]; 520 ± 160 nM in data set [9] (setting [16]). Also, the half-maximal effective concentration (EC50) in [9] (setting [17]) is 670 ± 230 nM. In addition, the CC50 at 48 h is over 16000 nM in [10] (Huh 7.5.1 cells, Table 4, 48 h) and over 20000 nM in data set [10] (Huh 7.5.1 cells, Table 5).

For `CC(=O)Oc1cccc(O)c1C(=O)NC(=O)NC1c2ccccc2-c2ccccc21` [Compound 14, 1-(2-Acetoxy-6-hydroxybenzoyl)-3-(9H-fluoren-9-yl)-urea], the EC50 in data set [4] (setting [14]) is 550 ± 30 nM; in data set [4] (setting [15]) it was 550 ± 30 nM; in data set [5], 770 ± 370 nM; in data set [8] it was 800 ± 230 nM; in data set [9] (setting [17]), 710 ± 340 nM. Further, in [11], 2430 ± 500 nM corresponded to half-maximal inhibition (IC50). Besides, the CC50 at 48 h in data set [10] (Huh 7.5.1 cells, Table 4, 48 h) is over 16000 nM.

`O=C(NC(=O)c1c(O)cccc1OC(=O)c1ccccc1)NC1c2ccccc2-c2ccccc21` [Compound 18, 1-(2-Benzoyloxy-6-hydroxybenzoyl)-3-(9H-fluoren-9-yl)-urea] came in with a melting point of 211 to 214 °C. Also, the EC50 in data set [4] (setting [15]) was 1050 ± 10 nM. This compound came in with an IC50 in data set [11] of 1990 ± 470 nM. Moreover, the EC50 in data set [5] is 600 ± 350 nM. In addition, the EC50 in data set [8] was found to be 1030 ± 20 nM. In data set [9] (setting [17]), the EC50 worked out at 700 ± 230 nM. In addition, the CC50 at 48 h in data set [10] (Huh 7.5.1 cells, Table 4, 48 h) is over 16000 nM.

In turn, `CC(C)(C)C(=O)Oc1cccc(OC(=O)C(C)(C)C)c1C(=O)NC(=O)NC1c2ccccc2-c2ccccc21` [Compound 31, 1-[2,6-Bis-(trimethylacetoxyloxy)benzoyl]-3-(9H-fluoren-9-yl)-urea] returned a melting point of 202 to 205 °C. Besides, the EC50 in data set [4] (setting [15]) was 750 ± 290 nM. In addition, the EC50 in [5] was 870 ± 270 nM. Besides, in [8], the EC50 was 560 ± 200 nM. Moreover, the EC50 in data set [9] (setting [17]) amounted to 840 ± 210 nM. This compound registered a CC50 at 48 h in data set [10] (Huh 7.5.1 cells, Table 4, 48 h) of over 16000 nM.

Compound `CCCCCC(=O)Oc1cccc(OC(=O)CCCCC)c1C(=O)NC(=O)NC1c2ccccc2-c2ccccc21` [Compound 32, 1-[2,6-Bis-(hexanoyloxy)benzoyl]-3-(9H-fluoren-9-yl)-urea] showed a melting point of 162 to 165 °C. In data set [4] (setting [15]), the EC50 turned out to be 380 ± 50 nM. The EC50 in [5] was found to be 630 ± 290 nM. Further, the EC50 in data set [8] amounted to 730 ± 340 nM. Moreover, the EC50 in [9] (setting [17]) stood at 740 ± 310 nM. Also, the CC50 at 48 h in data set [10] (Huh 7.5.1 cells, Table 4, 48 h) was over 16000 nM.

`CCCCCCCC(=O)Oc1cccc(OC(=O)CCCCCCC)c1C(=O)NC(=O)NC1c2ccccc2-c2ccccc21` [Compound 33, 1-[2,6-Bis-(n-Octanoyloxy)benzoyl]-3-(9H-fluoren-9-yl)-urea] displayed a melting point of 152 to 153 °C. Besides, the half-maximal effective concentration (EC50) in data set [4] (setting [15]) was found to be 980 ± 10 nM. Also, the EC50 in [5] stood at 540 ± 150 nM. Further, in [8], the EC50 came to 730 ± 200 nM. In addition, the EC50 in [9] (setting [17]) came to 950 ± 20 nM. The compound further yielded a CC50 at 48 h in data set [10] (Huh 7.5.1 cells, Table 4, 48 h) of over 16000 nM.

As to `C/C=C/C[C@@H](C)[C@@H](O)[C@H]1C(=O)N[C@@H](CC)C(=O)N(C)[C@H](SCCN(C)C)C(=O)N(C)[C@@H](CC(C)(C)O)C(=O)N[C@@H](C(C)C)C(=O)N(C)[C@@H](CC(C)C)C(=O)N[C@@H](C)C(=O)N[C@H](C)C(=O)N(C)[C@@H](CC(C)C)C(=O)N(C)[C@@H](CC(C)C)C(=O)N(C)[C@@H](C(C)C)C(=O)N1C` [SCY-635], in data set [12] (ref [27], read-out: EC50 (subgenomic replicon assay, con1-derived)), the EC50 is 100 nM.

For `CC(C)OC(=O)[C@H](C)N[P@](=O)(OC[C@H]1O[C@@H](n2ccc(=O)[nH]c2=O)[C@](C)(F)[C@@H]1O)Oc1ccccc1` [Sofosbuvir, reference compound], the concentration giving a half-maximal response (EC50) in data set [6] was 1140 ± 210 nM; in data set [9] (setting [16]) it was 220 ± 70 nM. For the same compound, the CC50 at 48 h in data set [10] (Table 5) is over 20000 nM.

Regarding `C/C=C/C[C@@H](C)[C@@H](O)[C@H]1C(=O)N[C@@H](CC)C(=O)N(C)[C@H](C)C(=O)N(CC)[C@@H](C(C)C)C(=O)N[C@@H](C(C)C)C(=O)N(C)[C@@H](CC(C)C)C(=O)N[C@@H](C)C(=O)N[C@H](C)C(=O)N(C)[C@@H](CC(C)C)C(=O)N(C)[C@@H](CC(C)C)C(=O)N(C)[C@@H](C(C)C)C(=O)N1C` [alisporivir], the EC50 in data set [12] (ref [6], read-out: EC50 (subgenomic replicon assay)) was 45 nM.

(Values after PMC6272715, “Discovery of Novel Small Molecule Anti-HCV Agents via the CypA Inhibitory Mechanism Using O-Acylation-Directed Lead Optimization” (Molecules, 2015).)
